Assay [1] deals with NLRP3 (Mus musculus, UniProt Q8R4B8). The experiment in a line: DARTS. In kind it is cell-based.
Assay [2] has as its target NOD-like receptor protein 3 (NLRP3) (Homo sapiens, UniProt Q96P20). The assay can be described thus: SPR. In kind it is binding.

Chain of NLRP3 (Q8R4B8 whole entry): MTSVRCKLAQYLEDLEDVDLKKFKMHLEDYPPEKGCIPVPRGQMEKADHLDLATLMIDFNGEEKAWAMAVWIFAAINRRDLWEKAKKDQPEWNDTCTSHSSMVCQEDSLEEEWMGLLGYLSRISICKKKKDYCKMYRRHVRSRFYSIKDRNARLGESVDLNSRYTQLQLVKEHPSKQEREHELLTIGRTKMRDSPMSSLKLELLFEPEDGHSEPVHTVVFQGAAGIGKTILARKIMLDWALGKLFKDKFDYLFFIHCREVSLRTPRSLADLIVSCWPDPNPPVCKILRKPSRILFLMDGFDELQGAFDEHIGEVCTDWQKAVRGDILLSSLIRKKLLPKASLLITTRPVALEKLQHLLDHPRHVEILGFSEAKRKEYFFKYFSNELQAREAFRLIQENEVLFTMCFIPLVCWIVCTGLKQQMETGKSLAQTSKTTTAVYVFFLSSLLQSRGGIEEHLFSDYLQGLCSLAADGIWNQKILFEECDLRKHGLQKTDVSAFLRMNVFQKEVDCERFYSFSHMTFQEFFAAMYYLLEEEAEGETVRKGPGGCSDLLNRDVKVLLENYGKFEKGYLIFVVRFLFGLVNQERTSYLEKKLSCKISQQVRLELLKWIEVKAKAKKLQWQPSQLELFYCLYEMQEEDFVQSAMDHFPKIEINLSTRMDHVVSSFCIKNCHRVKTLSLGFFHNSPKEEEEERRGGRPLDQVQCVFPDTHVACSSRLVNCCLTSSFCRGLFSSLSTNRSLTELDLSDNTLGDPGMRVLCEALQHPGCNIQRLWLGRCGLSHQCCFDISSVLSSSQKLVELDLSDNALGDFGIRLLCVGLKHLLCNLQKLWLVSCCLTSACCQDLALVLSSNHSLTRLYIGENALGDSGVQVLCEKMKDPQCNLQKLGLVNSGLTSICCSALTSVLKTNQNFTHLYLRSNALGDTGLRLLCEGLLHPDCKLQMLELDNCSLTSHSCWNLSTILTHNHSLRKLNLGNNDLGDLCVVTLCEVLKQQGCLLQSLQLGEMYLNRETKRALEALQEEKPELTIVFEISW
Chain of NOD-like receptor protein 3 (NLRP3) (Q96P20 220-536 limits assumed): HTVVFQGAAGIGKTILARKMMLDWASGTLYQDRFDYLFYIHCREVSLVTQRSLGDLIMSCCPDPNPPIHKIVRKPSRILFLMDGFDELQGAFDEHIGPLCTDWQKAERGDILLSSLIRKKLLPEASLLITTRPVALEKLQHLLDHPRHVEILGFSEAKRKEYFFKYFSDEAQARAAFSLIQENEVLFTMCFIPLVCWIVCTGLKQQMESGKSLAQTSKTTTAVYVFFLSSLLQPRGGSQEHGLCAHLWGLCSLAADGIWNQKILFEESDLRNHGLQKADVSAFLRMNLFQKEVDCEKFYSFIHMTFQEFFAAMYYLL

By Kd is commonly meant the equilibrium constant for the complex coming apart. Lower therefore signals tighter binding. For `Oc1c(I)cc(Cl)c2cccnc12` [CQ, 5-chloro-7-iodo-8-hydroxyquinoline], the “DARTS (BMDM lysates, CQ 15 μM) and CETSA (BMDMs)” value in assay [1] was “pre-incubation of CQ with BMDM cell lysates attenuated pronase-induced proteolysis of NLRP3”. In assay [2], the Kd was 9.93 µM.

These data come from PMC11788862 (Journal of Pharmaceutical Analysis, 2024).
